Results taken from patent US9545392B2, “Carrier comprising a vitamin E derivative” (UCL BUSINESS PLC, priority 2007, dated 2017).

Columns and labels:
[1] = assay type: in vivo; conditions: rat, tail vein; 300 μl of 5% free or 1 ml of 0.2% encapsulated
Description: 300 μl of 5% fluorescein sodium or 1 ml of 0.2% encapsulated fluorescein sodium, were administered to the rat through the tail vain and the retina monitored. Free fluorescein was removed by use of ultracentrifugation and PD-10 columns as outlined earlier.
It is important to highlight that the retinal blood vessels were not seen with the encapsulated material (A-C) as they are without (D-F), although there is a hint of arterial wall fluorescence in the encapsulated treated eye at 34 minutes (B). […] They were absent from the non-encapsulated eyes. These focal patches of fluorescence are believed to be intact liposomes containing fluorescein. […] The appearance, of fluorescent patches or “monofocal leakages” of sodium flourescein is similar to that that has been described when BBB disruption occurs in the brain (see FIG. 20 from Natah, S. S. et al. J Appl Physiol 107: 1348-1356 2009).

[2] = assay type: in vivo; conditions: rat, tail vein, 2 hours; 300 μl of 5% free or 1 ml of 0.2% encapsulated
Description: 300 μl of 5% fluorescein sodium or 1 ml of 0.2% encapsulated fluorescein sodium, were administered to the rat through the tail vain and the retina monitored. Free fluorescein was removed by use of ultracentrifugation and PD-10; columns as outlined earlier. After 2 hours; under general anaesthesia, the animals underwent fixation perfusion with 4% paraformaldehyde. Brains were stored in 4% paraformaldehyde overnight, following which 800 um slices were cut and examined under fluorescent confocal microscopy.
The images in FIG. 24 come from similar regions in the brain from an animal with intravenous encapsulated fluorescein sodium (A-B) compared to one with plain intravenous fluorescein sodium (C-D). Both fluorescence (A, C) and transmission (B, D) images are shown. […] This confirms the fact that encapsulation allows the fluorescein sodium to cross the BBB.
The appearance of fluorescent patches or “monofocal leakages” of sodium flourescein is similar to that that has been described when BBB disruption occurs in the brain, as discussed earlier (Natah, S. S. et al. J Appl Physiol 107: 1348-1356 2009).

[3] = assay type: in vivo; conditions: intravitreal injection, eyes imaged after 3 hours
Description: To access the release of encapsulated material, liposomes containing encapsulated αBT and annexin V-776 were administered via Intravitreal injection and the eyes were imaged after 3 hours.

[4] = In vivo labelling of retinal vasculature by alpha-bungarotoxin
Excerpt: The invention also provides alpha-bungarotoxin (αBT) for use in labelling the retinal vasculature of a subject. This is in vivo labelling. αBT is know to bind to nicotinic acetylcholine receptors (nAChRs) and is readily used to label the end plate of neuromuscular junctions ex vivo. It has not been applied to labelling in vivo due to it's potential neuromuscular inhibitory effects when used systemically. However, such problems are not seen when using it directly in the eye. The wall of the retinal vasculature, and in particular the arteries, is a muscular environment housing nAChRs. Therefore, αBT labels them specifically. This patterned labelling in the eye is something that is otherwise very difficult to achieve. Preferably, the αBT is administered directly to the retinal vasculature of the eye, for example, by intravitreal injection. Preferably, the αBT is labelled with an imaging moiety such as fluorescein.

In the case of `O=C1OC2(c3ccc(O)cc3Oc3cc(O)ccc32)c2ccccc21` [Fluorescein, fluorescein sodium], the “crossing of the blood retinal barrier” value [1] is reported as “unable to cross an intact blood retinal barrier and remains isolated to the vessels” and the “fluorescence in brain slices” value [2] is reported as “no signal at all”.
For “Annexin V-776: labelled annexin V, anionic phospholipid binding protein, given with liposomes”, the “release of cargo from liposomes” value [3] was “successful release”.
For alpha-bungarotoxin [αBT], the “labelling of retinal vessels” value [4] was “specifically labels the arteries in the retina”.
